Test results taken from patent US9206184B2, “Disubstituted benzothienyl-pyrrolotriazines and uses thereof” (BAYER INTELLECTUAL PROPERTY GmbH, priority 2011, dated 2015).
Counter-ions that a name gives are not always drawn.

Assays:
human FGFR-1 = human FGFR-1 (Homo sapiens, UniProt P11362); test: FGFR-1 high ATP kinase assay (TR-FRET); type: biochemical; conditions: 2 mM ATP; 15 min pre-incubation with enzyme; compounds of the invention
human FGFR-3 = human FGFR-3 (Homo sapiens (Human), UniProt P22607); test: FGFR-3 kinase assay (TR-FRET); type: biochemical; conditions: 10 μM ATP
[1] = 15 min pre-incubation with enzyme, compounds of the invention
[2] = 15 min pre-incubation with enzyme, compounds of the invention, dihydrochloride
[3] = comparative prior art compounds, labels are Example No. in WO 2007/061737

Chain of human FGFR-1 (P11362 22-822 limits assumed): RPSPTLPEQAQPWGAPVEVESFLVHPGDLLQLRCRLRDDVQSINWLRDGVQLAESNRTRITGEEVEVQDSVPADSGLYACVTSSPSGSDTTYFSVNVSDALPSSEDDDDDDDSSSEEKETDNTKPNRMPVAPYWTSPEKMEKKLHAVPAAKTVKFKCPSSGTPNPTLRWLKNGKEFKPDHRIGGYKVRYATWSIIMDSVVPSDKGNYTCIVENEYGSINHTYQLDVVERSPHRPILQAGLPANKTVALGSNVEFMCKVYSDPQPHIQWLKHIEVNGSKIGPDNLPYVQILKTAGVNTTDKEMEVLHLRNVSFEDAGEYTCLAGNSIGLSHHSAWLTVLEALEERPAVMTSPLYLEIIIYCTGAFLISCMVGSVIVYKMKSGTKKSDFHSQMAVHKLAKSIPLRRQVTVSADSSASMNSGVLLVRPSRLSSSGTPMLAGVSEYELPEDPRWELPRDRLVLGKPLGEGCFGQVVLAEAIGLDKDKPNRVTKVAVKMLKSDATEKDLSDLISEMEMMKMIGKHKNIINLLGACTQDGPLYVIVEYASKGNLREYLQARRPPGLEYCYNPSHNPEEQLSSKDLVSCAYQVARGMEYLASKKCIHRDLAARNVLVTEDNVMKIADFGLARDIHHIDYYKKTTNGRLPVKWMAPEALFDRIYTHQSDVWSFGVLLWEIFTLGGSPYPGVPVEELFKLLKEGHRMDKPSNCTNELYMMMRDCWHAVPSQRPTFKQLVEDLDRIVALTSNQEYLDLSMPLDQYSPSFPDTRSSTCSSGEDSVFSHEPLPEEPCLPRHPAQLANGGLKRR
Chain of human FGFR-3 (P22607 397-806): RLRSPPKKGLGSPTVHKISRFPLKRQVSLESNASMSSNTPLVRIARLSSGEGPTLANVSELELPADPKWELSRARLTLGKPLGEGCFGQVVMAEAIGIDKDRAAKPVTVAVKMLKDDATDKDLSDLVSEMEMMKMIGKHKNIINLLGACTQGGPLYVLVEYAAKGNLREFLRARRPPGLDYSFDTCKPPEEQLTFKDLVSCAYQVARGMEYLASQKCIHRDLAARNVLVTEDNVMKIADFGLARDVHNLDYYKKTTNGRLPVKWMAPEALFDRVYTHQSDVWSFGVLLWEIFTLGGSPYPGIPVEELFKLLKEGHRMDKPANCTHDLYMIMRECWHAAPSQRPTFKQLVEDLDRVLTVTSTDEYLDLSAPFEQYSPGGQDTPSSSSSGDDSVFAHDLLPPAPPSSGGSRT

| SMILES | IC50 (human FGFR-1) | IC50 (human FGFR-3; [1]) | IC50 (human FGFR-3; [2]) | IC50 (human FGFR-3; [3]) |
| --- | --- | --- | --- | --- |
| COc1cc(C)cc2cc(-c3c(CNCC(C)O)c(CN4CCOCC4)n4ncnc(N)c34)sc12 (racemic) [Example 53, rac-1-({[4-Amino-5-(7-methoxy-5-methyl-1-benzothiophen-2-yl)-7-(morpholin-4-ylmethyl)pyrrolo[2,1-f][1,2,4]triazin-6-yl]methyl}amino)propan-2-ol] | 3.9 nM | 2.5 nM | – | – |
| COCc1c(-c2cc3cc(C)cc(OC)c3s2)c2c(N)ncnn2c1CN[C@@H]1CCNC1=O [Example 3, (3R)-3-({[4-Amino-6-(methoxymethyl)-5-(7-methoxy-5-methyl-1-benzothiophen-2-yl)pyrrolo-[2,1-f][1,2,4]triazin-7-yl]methyl}amino)pyrrolidin-2-one dihydrochloride] | – | – | 46.6 nM | – |
| COCc1c(-c2cc3cc(C)cc(OC)c3s2)c2c(N)ncnn2c1CN[C@@H]1CCNC1=O [Example 4, (3R)-3-({[4-Amino-6-(methoxymethyl)-5-(7-methoxy-5-methyl-1-benzothiophen-2-yl)pyrrolo-[2,1-f][1,2,4]triazin-7-yl]methyl}amino)pyrrolidin-2-one] | – | 24.8 nM | – | – |
| CCOCc1c(-c2cc3cc(C)cc(OC)c3s2)c2c(N)ncnn2c1CN1CCNC(=O)C1 [Example 5, 4-{[4-Amino-6-(ethoxymethyl)-5-(7-methoxy-5-methyl-1-benzothiophen-2-yl)pyrrolo[2,1-f]-[1,2,4]triazin-7-yl]methyl}piperazin-2-one] | – | 12.1 nM | – | – |
| CCOCc1c(-c2cc3cc(C)cc(OC)c3s2)c2c(N)ncnn2c1CN1CCNC(=O)C1 [Example 6, 4-{[4-Amino-6-(ethoxymethyl)-5-(7-methoxy-5-methyl-1-benzothiophen-2-yl)pyrrolo-[2,1-f][1,2,4]triazin-7-yl]methyl}piperazin-2-one dihydrochloride] | – | – | 28.5 nM | – |
| COc1cc(C)cc2cc(-c3c(CO)c(CN4CCNC(=O)C4)n4ncnc(N)c34)sc12 [Example 13, 4-{[4-Amino-6-(hydroxymethyl)-5-(7-methoxy-5-methyl-1-benzothiophen-2-yl)pyrrolo[2,1-f]-[1,2,4]triazin-7-yl]methyl}piperazin-2-one] | 2.5 nM | 10 nM | – | – |
| CCOCc1c(-c2cc3cc(C)cc(OC)c3s2)c2c(N)ncnn2c1CN1CC[C@](C)(N)C1 [Example 15, 7-{[(3S)-3-Amino-3-methylpyrrolidin-1-yl]methyl}-6-(ethoxymethyl)-5-(7-methoxy-5-methyl-1-benzothiophen-2-yl)pyrrolo[2,1-f][1,2,4]triazin-4-amine] | 1 nM | 1 nM | – | – |
| CCOCc1c(-c2cc3cc(C)cc(OC)c3s2)c2c(N)ncnn2c1CN1CCN(C(C)=O)CC1 [Example 20, 1-(4-{[4-Amino-6-(ethoxymethyl)-5-(7-methoxy-5-methyl-1-benzothiophen-2-yl)pyrrolo[2,1-f]-[1,2,4]triazin-7-yl]methyl}piperazin-1-yl)ethanone] | 25 nM | 26.1 nM | – | – |
| COc1cc(C)cc2cc(-c3c(COCCO)c(CN4CCNC(=O)C4)n4ncnc(N)c34)sc12 [Example 21, 4-({4-Amino-6-[(2-hydroxyethoxy)methyl]-5-(7-methoxy-5-methyl-1-benzothiophen-2-yl)pyrrolo-[2,1-f][1,2,4]triazin-7-yl}methyl)piperazin-2-one formiate] | 4.2 nM | 13 nM | – | – |
| COc1cc(C)cc2cc(-c3c(COCC4CC4)c(CN4CCNCC4)n4ncnc(N)c34)sc12 [Example 25, 6-[(Cyclopropylmethoxy)methyl]-5-(7-methoxy-5-methyl-1-benzothiophen-2-yl)-7-(piperazin-1-ylmethyl)pyrrolo[2,1-f][1,2,4]triazin-4-amine bis(formiate)] | 0.7 nM | 5.2 nM | – | – |
| COc1cc(C)cc2cc(-c3c(COC4CCC4)c(CN4CCNCC4)n4ncnc(N)c34)sc12 [Example 26, 6-[(Cyclobutyloxy)methyl]-5-(7-methoxy-5-methyl-1-benzothiophen-2-yl)-7-(piperazin-1-ylmethyl)pyrrolo[2,1-f][1,2,4]triazin-4-amine] | 0.9 nM | 4.9 nM | – | – |
| COc1cc(C)cc2cc(-c3c(COCC(F)(F)F)c(CN4CCNCC4)n4ncnc(N)c34)sc12 [Example 29, 5-(7-Methoxy-5-methyl-1-benzothiophen-2-yl)-7-(piperazin-1-ylmethyl)-6-[(2,2,2-trifluoroethoxy)methyl]pyrrolo[2,1-f][1,2,4]triazin-4-amine formiate] | 1.6 nM | 2.5 nM | – | – |
| COc1cc(C)cc2cc(-c3c(COCC(N)=O)c(CN4CCNCC4)n4ncnc(N)c34)sc12 [Example 33, 2-{[4-Amino-5-(7-methoxy-5-methyl-1-benzothiophen-2-yl)-7-(piperazin-1-ylmethyl)pyrrolo-[2,1-f][1,2,4]triazin-6-yl]methoxy}acetamide] | 1 nM | 7.2 nM | – | – |
| COc1cc(C)cc2cc(-c3c(COCC(N)=O)c(CN4CCN(C(C)=O)CC4)n4ncnc(N)c34)sc12 [Example 34, 2-({7-[(4-Acetylpiperazin-1-yl)methyl]-4-amino-5-(7-methoxy-5-methyl-1-benzothiophen-2-yl)pyrrolo[2,1-f][1,2,4]triazin-6-yl}methoxy)acetamide] | 6 nM | 10.5 nM | – | – |
| COc1cc(C)cc2cc(-c3c(COc4ccccc4)c(CN4CCNCC4)n4ncnc(N)c34)sc12 [Example 35, 5-(7-Methoxy-5-methyl-1-benzothiophen-2-yl)-6-(phenoxymethyl)-7-(piperazin-1-ylmethyl)pyrrolo[2,1-f][1,2,4]triazin-4-amine bis(formiate)] | 61.3 nM | 65.4 nM | – | – |
| COc1cc(C)cc2cc(-c3c(CNC4CCC4)c(CN4CCNCC4)n4ncnc(N)c34)sc12 [Example 44, 6-[(Cyclobutylamino)methyl]-5-(7-methoxy-5-methyl-1-benzothiophen-2-yl)-7-(piperazin-1-ylmethyl)pyrrolo[2,1-f][1,2,4]triazin-4-amine trihydrochloride] | – | 6.1 nM | – | – |
| COc1cc(C)cc2cc(-c3c(CN[C@H]4CCNC4=O)c(CN4CCOCC4)n4ncnc(N)c34)sc12 [Example 51, (3S)-3-({[4-Amino-5-(7-methoxy-5-methyl-1-benzothiophen-2-yl)-7-(morpholin-4-ylmethyl)pyrrolo[2,1-f][1,2,4]triazin-6-yl]methyl}amino)pyrrolidin-2-one] | 4.4 nM | 3.9 nM | – | – |
| COc1cc(C)cc2cc(-c3c(CN4CCNC(=O)C4)c(CN4CCOCC4)n4ncnc(N)c34)sc12 [Example 52, 4-{[4-Amino-5-(7-methoxy-5-methyl-1-benzothiophen-2-yl)-7-(morpholin-4-ylmethyl)pyrrolo-[2,1-f][1,2,4]triazin-6-yl]methyl}piperazin-2-one] | 9.7 nM | 7 nM | – | – |
| COc1cc(C)cc2cc(-c3c(CNCC(C)(C)O)c(CN4CCOCC4)n4ncnc(N)c34)sc12 [Example 54, 1-({[4-Amino-5-(7-methoxy-5-methyl-1-benzothiophen-2-yl)-7-(morpholin-4-ylmethyl)pyrrolo-[2,1-f][1,2,4]triazin-6-yl]methyl}amino)-2-methylpropan-2-ol] | 11.2 nM | 6.8 nM | – | – |
| COc1cc(C)cc2cc(-c3c(CN[C@@H]4CCNC4=O)c(CN4CCN(C(C)=O)CC4)n4ncnc(N)c34)sc12 [Example 56, (3R)-3-[({7-[(4-Acetylpiperazin-1-yl)methyl]-4-amino-5-(7-methoxy-5-methyl-1-benzothiophen-2-yl)pyrrolo[2,1-f][1,2,4]triazin-6-yl}methyl)amino]pyrrolidin-2-one] | 2.4 nM | 2 nM | – | – |
| COc1cc(C)cc2cc(-c3c(CNCC(C)(C)O)c(CN4CCN(C(C)=O)CC4)n4ncnc(N)c34)sc12 [Example 57, 1-(4-{[4-Amino-6-{[(2-hydroxy-2-methylpropyl)amino]methyl}-5-(7-methoxy-5-methyl-1-benzothiophen-2-yl)pyrrolo[2,1-f][1,2,4]triazin-7-yl]methyl}piperazin-1-yl)ethanone] | 3.2 nM | 1.8 nM | – | – |
| COc1cc(C)cc2cc(-c3c(CN4CCNC(=O)C4)c(CN4CCN(C=O)CC4)n4ncnc(N)c34)sc12 [Example 58, 4-({4-Amino-5-(7-methoxy-5-methyl-1-benzothiophen-2-yl)-6-[(3-oxopiperazin-1-yl)methyl]-pyrrolo[2,1-f][1,2,4]triazin-7-yl}methyl)piperazine-1-carbaldehyde formiate] | 6.8 nM | 9.8 nM | – | – |
| COc1cc(C)cc2cc(-c3c(CN4CCNC(=O)C4)c(CN4CCN(C(C)=O)CC4)n4ncnc(N)c34)sc12 [Example 59, 4-({7-[(4-Acetylpiperazin-1-yl)methyl]-4-amino-5-(7-methoxy-5-methyl-1-benzothiophen-2-yl)pyrrolo[2,1-f][1,2,4]triazin-6-yl}methyl)piperazin-2-one] | 3.8 nM | 6.8 nM | – | – |
| COCc1c(-c2cc3cc(OC)cc(OC)c3s2)c2c(N)ncnn2c1CN1CCNC(=O)C1 [Example 124, 4-{[4-Amino-5-(5,7-dimethoxy-1-benzothiophen-2-yl)-6-(methoxymethyl)pyrrolo[2,1-f][1,2,4]-triazin-7-yl]methyl}piperazin-2-one] | 27.3 nM | – | – | – |
| COc1cc(C)cc2cc(-c3c(CN4CCNC(=O)C4)c(CO)n4ncnc(N)c34)sc12 [Example 125, 4-{[4-Amino-7-(hydroxymethyl)-5-(7-methoxy-5-methyl-1-benzothiophen-2-yl)pyrrolo[2,1-f]-[1,2,4]triazin-6-yl]methyl}piperazin-2-one] | 5 nM | – | – | – |
| Cc1c(-c2nc(C3CCC3)n3ccnc(N)c23)sc2ccccc12 [Example 210 in WO 2007/061737, reference compound] | – | – | – | 554 nM |
| Nc1nccn2c(C3CCC3)nc(-c3cc4cccc(Cl)c4s3)c12 [Example 233 in WO 2007/061737, reference compound] | – | – | – | 10000 nM |
